ChEMBL document CHEMBL1629620 (Antimicrob Agents Chemother, 2009)

Tested on: Vaccinia virus
Assay: Antiviral activity against J2R gene deficient Vaccinia virus harboring VVTK::luc infected in HFF assessed as reduction of plaque formation after 3 days
Format: functional, organism-based
Details: Orthopoxvirus vaccinia, 72 h

Compound	EC50
Nc1ccn(C[C@@H](CO)OCP(=O)(O)O)c(=O)n1.O.O [CIDOFOVIR]	9.4 µM
O=c1[nH]c(=O)n([C@H]2C[C@H](O)[C@@H](CO)S2)cc1I	0.3 µM
O=c1[nH]c(=O)n([C@H]2C[C@H](O)[C@@H](CO)O2)cc1I [IDOXURIDINE]	7.1 µM
